Literature values, collected in patent publication US11911505B2, “Liquid formulations of hypoglycaemic sulfonamides” (AMMTEK, priority 2012, dated 2024).
In brackets after ≈: the same amount, converted by molar mass.

Settings: 27° C.

Row | Structure (SMILES) | solubility in water [mg/mL]
1 | COc1ccc2c(c1)C(=O)N(CCc1ccc(S(=O)(=O)NC(=O)NC3CCCCC3)cc1)C(=O)C2(C)C [gliquidone] | 0.002 (≈ 3.79 µM)
2 | CC(=O)c1ccc(S(=O)(=O)NC(=O)NC2CCCCC2)cc1 [acetohexamide] | 0.048 (≈ 148 µM)
3 | CCC1=C(C)CN(C(=O)NCCc2ccc(S(=O)(=O)NC(=O)N[C@H]3CC[C@H](C)CC3)cc2)C1=O [glimepiride] | 0.038 (≈ 77.5 µM)
